Laboratory results published in US20160215268A1, “Suspension Culturing of Pluripotent Stem Cells” (Janssen Biotech, Inc., priority 2014, published 2016).

Test system: human embryonic stem cell line H1
Assay: OpenArray qRT-PCR mRNA expression in differentiating H1 cells
Assay type: cell-based
Conditions: Example 5, condition A, beginning of Stage 6, 100 nM
Experimental: In addition to monitoring the metabolic profile of the spent media through daily sampling, representative samples of cells were obtained throughout the differentiation process and tested for mRNA expression of a panel of genes via Applied Biosystems® OpenArray® (Life Technologies) and calculated as fold difference in expression compared to pluripotent ISM cells after 24 hours in culture from the beginning of the experiment. FIGS. 2A through M depict data for expression of the following genes in cells differentiated through the first day of Stage 5: PDX1 (FIG.2A); NKX6.1 (FIG. 2B); PAX4 (FIG. 2C); PAX6 (FIG. 2D); NEUROG3(NGN3) (FIG. 2E); ABCC8 (FIG. 2F); Chromogranin-A (“CHGA”) (FIG. 2G); G6PC2 (FIG. 2H); IAPP (FIG. 2I); insulin (“INS”) (FIG. 2J); glucagon (“GCG”) (FIG. 2K); PTF1a (FIG. 2L); and NEUROD1 (FIG. 2M).
In addition to determining cell protein expression by flow cytometry, samples throughout Stages 3 and 4 of the differentiation process were tested for mRNA expression of a gene panel using OpenArray® qRT-PCR. […]
Throughout the differentiation process cell samples were collected from the suspension cultures for analysis. Samples were analyzed for mRNA expression (OpenArray® qRT-PCR) and protein expression (flow cytometry and florescent immune-histochemistry).

For C[C@H](NC(=O)Cc1cc(F)cc(F)c1)C(=O)N[C@@H]1C(=O)N(C)c2ccccc2-c2ccccc21 [gamma secretase inhibitor XX], the NGN3 expression was “second induction of NGN3”.
